Results as given in US12318373B2, “Methods of treating gastrointestinal stromal tumors” (Deciphera Pharmaceuticals, LLC, priority 2019, dated 2025).

Test system: GIST patients
Experiment: Example 3: safety, TEAEs in GIST patients at ≥100 mg daily
Assay type: in vivo, human
Description: Grade 3 or 4 treatment-emergent adverse events (TEAEs) in >5% of patients were lipase increased (18%; n=33), anemia (11%; n=20), hypertension (7%; n=13) and abdominal pain (6%; n=11). 13% of patients (n=24) experienced TEAEs leading to study treatment discontinuation, 17% of patients (n=31) experienced TEAEs leading to dose reduction and 49% of patients (n=88) had TEAEs leading to study drug interruption. Table 3 lists TEAEs>10% for GIST patients treated with ≥100 mg of ripretinib daily.

[1] = 1st column pair, head not printed (likely Grade 1/2)
[2] = 3rd column pair, head not printed (likely all grades)

CCn1c(=O)c(-c2cc(NC(=O)Nc3ccccc3)c(F)cc2Br)cc2cnc(NC)cc21 [ripretinib]
Patients with TEAEs leading to dose reduction, %: 17% | Patients with TEAEs leading to dose reduction, number: 31 | Patients with TEAEs leading to study drug interruption, %: 49% | Patients with TEAEs leading to study drug interruption, number: 88 | Patients with TEAEs leading to study treatment discontinuation, %: 13% | Patients with TEAEs leading to study treatment discontinuation, number: 24 | Abdominal pain: patients, % [1]: (18%) | Abdominal pain: patients, number [1]: 33 | Actinic keratosis: patients, % [1]: (14%) | Actinic keratosis: patients, number [1]: 25 | Alopecia: patients, % [1]: (57%) | Alopecia: patients, number [1]: 102 | Amylase increased: patients, % [1]: (11%) | Amylase increased: patients, number [1]: 19 | Anemia: patients, % [1]: (10%) | Anemia: patients, number [1]: 18 | Arthralgia: patients, % [1]: (22%) | Arthralgia: patients, number [1]: 40 | Back Pain: patients, % [1]: (17%) | Back Pain: patients, number [1]: 30 | Blood bilirubin increase: patients, % [1]: (9%) | Blood bilirubin increase: patients, number [1]: 16 | Blood creatine phosphokinase increased: patients, % [1]: (7%) | Blood creatine phosphokinase increased: patients, number [1]: 13 | Constipation: patients, % [1]: (37%) | Constipation: patients, number [1]: 67 | Cough: patients, % [1]: (21%) | Cough: patients, number [1]: 37 | Decreased appetite: patients, % [1]: (34%) | Decreased appetite: patients, number [1]: 60 | Diarrhea: patients, % [1]: (28%) | Diarrhea: patients, number [1]: 50 | Dizziness: patients, % [1]: (16%) | Dizziness: patients, number [1]: 29 | Dry skin: patients, % [1]: (21%) | Dry skin: patients, number [1]: 37 | Dysgeusia: patients, % [1]: (11%) | Dysgeusia: patients, number [1]: 20 | Dyspnea: patients, % [1]: (18%) | Dyspnea: patients, number [1]: 32 | Fatigue: patients, % [1]: (53%) | Fatigue: patients, number [1]: 94 | Headache: patients, % [1]: (18%) | Headache: patients, number [1]: 33 | Hypertension: patients, % [1]: (14%) | Hypertension: patients, number [1]: 25 | Hypokalaemia: patients, % [1]: (12%) | Hypokalaemia: patients, number [1]: 21 | Hypomagnesaemia: patients, % [1]: (10%) | Hypomagnesaemia: patients, number [1]: 18 | Hypophosphataemia: patients, % [1]: (10%) | Hypophosphataemia: patients, number [1]: 17 | Insomnia: patients, % [1]: (12%) | Insomnia: patients, number [1]: 21 | Lipase increased: patients, % [1]: (10%) | Lipase increased: patients, number [1]: 18 | Muscle spasms: patients, % [1]: (26%) | Muscle spasms: patients, number [1]: 47 | Myalgia: patients, % [1]: (44%) | Myalgia: patients, number [1]: 79 | Nausea: patients, % [1]: (43%) | Nausea: patients, number [1]: 77 | Pain in extremity: patients, % [1]: (10%) | Pain in extremity: patients, number [1]: 18 | Palmar-plantar erythrodysaesthesia syndrome: patients, % [1]: (40%) | Palmar-plantar erythrodysaesthesia syndrome: patients, number [1]: 71 | Pruritus: patients, % [1]: (10%) | Pruritus: patients, number [1]: 18 | Rash maculo-papular: patients, % [1]: (10%) | Rash maculo-papular: patients, number [1]: 18 | Rash: patients, % [1]: (15%) | Rash: patients, number [1]: 27 | Seborrhoeic keratosis: patients, % [1]: (12%) | Seborrhoeic keratosis: patients, number [1]: 21 | Skin papilloma: patients, % [1]: (10%) | Skin papilloma: patients, number [1]: 17 | Upper respiratory tract infection: patients, % [1]: (10%) | Upper respiratory tract infection: patients, number [1]: 18 | Urinary tract infection: patients, % [1]: (9%) | Urinary tract infection: patients, number [1]: 16 | Vision blurred: patients, % [1]: (10%) | Vision blurred: patients, number [1]: 17 | Vomiting: patients, % [1]: (24%) | Vomiting: patients, number [1]: 42 | Weight decreased: patients, % [1]: (29%) | Weight decreased: patients, number [1]: 51 | Abdominal pain: patients, % [2]: (25%) | Abdominal pain: patients, number [2]: 44 | Actinic keratosis: patients, % [2]: (14%) | Actinic keratosis: patients, number [2]: 25 | Alopecia: patients, % [2]: (57%) | Alopecia: patients, number [2]: 102 | Amylase increased: patients, % [2]: (12%) | Amylase increased: patients, number [2]: 21 | Anemia: patients, % [2]: (21%) | Anemia: patients, number [2]: 38 | Arthralgia: patients, % [2]: (22%) | Arthralgia: patients, number [2]: 40 | Back Pain: patients, % [2]: (18%) | Back Pain: patients, number [2]: 32 | Blood bilirubin increase: patients, % [2]: (12%) | Blood bilirubin increase: patients, number [2]: 21 | Blood creatine phosphokinase increased: patients, % [2]: (10%) | Blood creatine phosphokinase increased: patients, number [2]: 18 | Constipation: patients, % [2]: (37%) | Constipation: patients, number [2]: 67 | Cough: patients, % [2]: (21%) | Cough: patients, number [2]: 37 | Decreased appetite: patients, % [2]: (35%) | Decreased appetite: patients, number [2]: 62 | Diarrhea: patients, % [2]: (30%) | Diarrhea: patients, number [2]: 53 | Dizziness: patients, % [2]: (16%) | Dizziness: patients, number [2]: 29 | Dry skin: patients, % [2]: (21%) | Dry skin: patients, number [2]: 37 | Dysgeusia: patients, % [2]: (11%) | Dysgeusia: patients, number [2]: 20 | Dyspnea: patients, % [2]: (20%) | Dyspnea: patients, number [2]: 36 | Fatigue: patients, % [2]: (55%) | Fatigue: patients, number [2]: 98 | Headache: patients, % [2]: (19%) | Headache: patients, number [2]: 34 | Hypertension: patients, % [2]: (21%) | Hypertension: patients, number [2]: 38 | Hypokalaemia: patients, % [2]: (15%) | Hypokalaemia: patients, number [2]: 26 | Hypomagnesaemia: patients, % [2]: (10%) | Hypomagnesaemia: patients, number [2]: 18 | Hypophosphataemia: patients, % [2]: (14%) | Hypophosphataemia: patients, number [2]: 25 | Insomnia: patients, % [2]: (12%) | Insomnia: patients, number [2]: 21 | Lipase increased: patients, % [2]: (29%) | Lipase increased: patients, number [2]: 51 | Muscle spasms: patients, % [2]: (26%) | Muscle spasms: patients, number [2]: 47 | Myalgia: patients, % [2]: (44%) | Myalgia: patients, number [2]: 79 | Nausea: patients, % [2]: (44%) | Nausea: patients, number [2]: 78 | Pain in extremity: patients, % [2]: (11%) | Pain in extremity: patients, number [2]: 19 | Palmar-plantar erythrodysaesthesia syndrome: patients, % [2]: (40%) | Palmar-plantar erythrodysaesthesia syndrome: patients, number [2]: 72 | Pruritus: patients, % [2]: (10%) | Pruritus: patients, number [2]: 18 | Rash maculo-papular: patients, % [2]: (10%) | Rash maculo-papular: patients, number [2]: 18 | Rash: patients, % [2]: (15%) | Rash: patients, number [2]: 27 | Seborrhoeic keratosis: patients, % [2]: (12%) | Seborrhoeic keratosis: patients, number [2]: 21 | Skin papilloma: patients, % [2]: (10%) | Skin papilloma: patients, number [2]: 17 | Upper respiratory tract infection: patients, % [2]: (10%) | Upper respiratory tract infection: patients, number [2]: 18 | Urinary tract infection: patients, % [2]: (11%) | Urinary tract infection: patients, number [2]: 20 | Vision blurred: patients, % [2]: (10%) | Vision blurred: patients, number [2]: 17 | Vomiting: patients, % [2]: (25%) | Vomiting: patients, number [2]: 44 | Weight decreased: patients, % [2]: (29%) | Weight decreased: patients, number [2]: 52 | Tolerability (GIST patients): generally well tolerated | Abdominal pain: patients, number (head not printed (Grade 3/4)): 11 | Actinic keratosis: patients, % (head not printed (Grade 3/4)): (0%) | Actinic keratosis: patients, number (head not printed (Grade 3/4)): 0 | Alopecia: patients, % (head not printed (Grade 3/4)): (0%) | Alopecia: patients, number (head not printed (Grade 3/4)): 0 | Amylase increased: patients, % (head not printed (Grade 3/4)): (1%) | Amylase increased: patients, number (head not printed (Grade 3/4)): 2 | Anemia: patients, number (head not printed (Grade 3/4)): 20 | Arthralgia: patients, % (head not printed (Grade 3/4)): (0%) | Arthralgia: patients, number (head not printed (Grade 3/4)): 0 | Back Pain: patients, % (head not printed (Grade 3/4)): (1%) | Back Pain: patients, number (head not printed (Grade 3/4)): 2 | Blood bilirubin increase: patients, % (head not printed (Grade 3/4)): (3%) | Blood bilirubin increase: patients, number (head not printed (Grade 3/4)): 5 | Blood creatine phosphokinase increased: patients, % (head not printed (Grade 3/4)): (3%) | Blood creatine phosphokinase increased: patients, number (head not printed (Grade 3/4)): 5 | Constipation: patients, % (head not printed (Grade 3/4)): (0%) | Constipation: patients, number (head not printed (Grade 3/4)): 0 | Cough: patients, % (head not printed (Grade 3/4)): (0%) | Cough: patients, number (head not printed (Grade 3/4)): 0 | Decreased appetite: patients, % (head not printed (Grade 3/4)): (1%) | Decreased appetite: patients, number (head not printed (Grade 3/4)): 2 | Diarrhea: patients, % (head not printed (Grade 3/4)): (2%) | Diarrhea: patients, number (head not printed (Grade 3/4)): 3 | Dizziness: patients, % (head not printed (Grade 3/4)): (0%) | Dizziness: patients, number (head not printed (Grade 3/4)): 0 | Dry skin: patients, % (head not printed (Grade 3/4)): (0%) | Dry skin: patients, number (head not printed (Grade 3/4)): 0 | Dysgeusia: patients, % (head not printed (Grade 3/4)): (0%) | Dysgeusia: patients, number (head not printed (Grade 3/4)): 0 | Dyspnea: patients, % (head not printed (Grade 3/4)): (2%) | Dyspnea: patients, number (head not printed (Grade 3/4)): 4 | Fatigue: patients, % (head not printed (Grade 3/4)): (2%) | Fatigue: patients, number (head not printed (Grade 3/4)): 4 | Headache: patients, % (head not printed (Grade 3/4)): (1%) | Headache: patients, number (head not printed (Grade 3/4)): 1 | Hypertension: patients, number (head not printed (Grade 3/4)): 13 | Hypokalaemia: patients, % (head not printed (Grade 3/4)): (3%) | Hypokalaemia: patients, number (head not printed (Grade 3/4)): 5 | Hypomagnesaemia: patients, % (head not printed (Grade 3/4)): (0%) | Hypomagnesaemia: patients, number (head not printed (Grade 3/4)): 0 | Hypophosphataemia: patients, % (head not printed (Grade 3/4)): (5%) | Hypophosphataemia: patients, number (head not printed (Grade 3/4)): 8 | Insomnia: patients, % (head not printed (Grade 3/4)): (0%) | Insomnia: patients, number (head not printed (Grade 3/4)): 0 | Lipase increased: patients, number (head not printed (Grade 3/4)): 33 | Muscle spasms: patients, % (head not printed (Grade 3/4)): (0%) | Muscle spasms: patients, number (head not printed (Grade 3/4)): 0 | Myalgia: patients, % (head not printed (Grade 3/4)): (0%) | Myalgia: patients, number (head not printed (Grade 3/4)): 0 | Nausea: patients, % (head not printed (Grade 3/4)): (1%) | Nausea: patients, number (head not printed (Grade 3/4)): 1 | Pain in extremity: patients, % (head not printed (Grade 3/4)): (1%) | Pain in extremity: patients, number (head not printed (Grade 3/4)): 1 | Palmar-plantar erythrodysaesthesia syndrome: patients, % (head not printed (Grade 3/4)): (1%) | Palmar-plantar erythrodysaesthesia syndrome: patients, number (head not printed (Grade 3/4)): 1 | Pruritus: patients, % (head not printed (Grade 3/4)): (0%) | Pruritus: patients, number (head not printed (Grade 3/4)): 0 | Rash maculo-papular: patients, % (head not printed (Grade 3/4)): (0%) | Rash maculo-papular: patients, number (head not printed (Grade 3/4)): 0 | Rash: patients, % (head not printed (Grade 3/4)): (0%) | Rash: patients, number (head not printed (Grade 3/4)): 0 | Seborrhoeic keratosis: patients, % (head not printed (Grade 3/4)): (0%) | Seborrhoeic keratosis: patients, number (head not printed (Grade 3/4)): 0 | Skin papilloma: patients, % (head not printed (Grade 3/4)): (0%) | Skin papilloma: patients, number (head not printed (Grade 3/4)): 0 | Upper respiratory tract infection: patients, % (head not printed (Grade 3/4)): (0%) | Upper respiratory tract infection: patients, number (head not printed (Grade 3/4)): 0 | Urinary tract infection: patients, % (head not printed (Grade 3/4)): (2%) | Urinary tract infection: patients, number (head not printed (Grade 3/4)): 4 | Vision blurred: patients, % (head not printed (Grade 3/4)): (0%) | Vision blurred: patients, number (head not printed (Grade 3/4)): 0 | Vomiting: patients, % (head not printed (Grade 3/4)): (1%) | Vomiting: patients, number (head not printed (Grade 3/4)): 2 | Weight decreased: patients, % (head not printed (Grade 3/4)): (1%) | Weight decreased: patients, number (head not printed (Grade 3/4)): 1
